Patent US6169181A, “Compounds useful to treat retroviral infections” (Pharmacia & Upjohn Company, priority 1998, dated 2001)
“And” between values parts separate entries of the source, which are not always exact repeats. Equal entries are not always repeated. Where two headings read alike, the source gives them in different places.

Experiments:
[1] = molecular target: T1, HIV-1 protease (Human immunodeficiency virus type 1 group M subtype B, UniProt P04585); experiment: biochemical
Procedure: (§1) The HIV protease screening assay is based on fluorescently labeled substrate which can be resolved from nonlabeled cleavage product using special beads coated with streptavidin. The substrate is biotinylated at the amino terminal arginine and fluorescently labeled with fluorescein isothiocynate (FITC) at the carboxyl terminal lysine. This assay has been employed to detect novel, nonpeptidic inhibitors of HIV-1 protease. Substrate (20 μM of 0.2 μM), sample (10 μl of desired concentraion), and enzyme (10 μl of 0.1 μM) are added to a 96 well pandex plate. The assay is run in 0.1 M sodium acetate buffer at pH 5.5 in the presence of 1.0 M sodium chloride and 0.05% NP-40 with incubated in the dark for one hour at room temperature. Strepavidin coated polystyrene beads {40 μl of 0.1% (w/v)} are added and the plate is incubated in the dark for an additional half hour. The labeled cleavage product is separated from the unreacted substrate via filtration and is read on the Idexx screen machine. The data are analyzed by appropriate computer algorithms to ascertain percent inhibition values.

[2] = molecular target: T1, HIV-1 protease; experiment: biochemical; conditions: read-out: HIV Protease FITC Assay Ki
Procedure: as §1, with “This assay has been employed to detect novel, nonpeptidic inhibitors of HIV-1 protease.” left out
Determination of Ki values utilizes the same materials and equipment employed for percent inhibition studies. Two-fold serial dilutions are made for a given inhibitor from 2, 3 or 4 starting concentrations with a total of 24, 36 or 48 individual inhibitor concentrations. These dilutions are performed utilizing the BioMek robotics system. The assay consists of 10 μL of 40 nM HIV-1 protease, 10 μL of the various inhibitor concentrations, and 20 μL of 200 μM substrate (40 μL total). The reaction is allowed to proceed for 90 min at room temperature, terminated with 40 μL of avidin beads and processed (supra vide). An inhibitor with a known K; is run in parallel to verify the validity of the assay. The data is processed utilizing a computer program employing a nonlinear least square analysis of the data to generate the Ki values.

[3] = Table II, enzyme HIV-1, DOSE 0.123 (unit not given)
[4] = Table II, enzyme HIV-1, DOSE 0.370 (unit not given)
[5] = Table II, enzyme HIV-1, DOSE 1.100 (unit not given)
[6] = Table II, enzyme HIV-1, DOSE 3.300 (unit not given)
[7] = Table II, enzyme HIV-1, DOSE 10.000 (unit not given)
[8] = Table II, enzyme HIV-1, DOSE 30.000 (unit not given)
[9] = Table I, Dose 0.123 μM, read-out: Protease % Inhib
[10] = Table I, Dose 0.370 μM, read-out: Protease % Inhib
[11] = Table I, Dose 1.100 μM, read-out: Protease % Inhib
[12] = Table I, Dose 3.300 μM, read-out: Protease % Inhib
[13] = Table I, Dose 10.000 μM, read-out: Protease % Inhib
[14] = Table I, Dose 30.000 μM, read-out: Protease % Inhib

For `CCC(C1=C(O)CC(CC(C)C)(CC(C)C)OC1=O)c1cccc(NS(=O)(=O)c2ccc(C#N)cn2)c1` (racemic) [Example 304, 5-Cyano-N-[3-(1-[5,6-dihydro-6,6-diisobutyl-4-hydroxy-2-oxo-2H-pyran-3-yl]propyl)phenyl]-2-pyridinesulfonamide], the “PROTEASE % INHIB.” value [1, 3] was 92.01%, the “PROTEASE % INHIB.” value [1, 4] was 93.28% and the “PROTEASE % INHIB.” value [1, 5] was 96.47%. For the same compound, the “PROTEASE % INHIB.” value [1, 6] was 100.47%, the “PROTEASE % INHIB.” value [1, 7] was 107.61% and the “PROTEASE % INHIB.” value [1, 8] was 79.68%.

With `CC[C@H](Cc1ccccc1)c1cc(O)c(C(c2cccc(NS(=O)(=O)c3ccc(C#N)cc3)c2)C2CC2)c(=O)o1` (single isomer, unassigned) [Example 149, N-(3-(R or S)-{Cyclopropyl-[6-(1-(R)-ethylphenethyl)-4-hydroxy-2-oxo-2H-pyran-3-yl]-methyl}-phenyl)-4-cyanobenzenesulfonamide] the “PROTEASE % INHIB.” value ([1]; Table I, Dose 0.123 μM) was 80.51%, the “PROTEASE % INHIB.” value ([1]; Table I, Dose 0.370 μM) was 87.52% and the “PROTEASE % INHIB.” value ([1]; Table I, Dose 1.100 μM) was 96.32%. For the same compound, the “PROTEASE % INHIB.” value ([1]; Table I, Dose 3.300 μM) was 92.86%, the “PROTEASE % INHIB.” value ([1]; Table I, Dose 10.000 μM) was 97.12% and the “PROTEASE % INHIB.” value ([1]; Table I, Dose 30.000 μM) was 95.99%.

In the case of `Cn1cnc(S(=O)(=O)Nc2cccc(C(c3c(O)cc(C(CC4CC4)CC4CC4)oc3=O)C3CC3)c2)c1` (stereo not shown) [98 First Compound], the Ki [2] is reported as 0.74 nM and 0.8 nM.

With `CCCCCC1(CCCCC)CC(O)=C(C(CC)c2cccc(NS(=O)(=O)c3cn(C)cn3)c2)C(=O)O1` (stereo not shown) [Example 63, N-[3-[1-(4-Hydroxy-2-oxo-6,6-dipentyl-5,6-dihydro-2H-pyran-3-yl)-propyl]-phenyl]-1-methyl-1H-imidazole-4-sulfonamide] the inhibition at 0.123 µM ([1]; read-out: Protease % Inhib) was 68.9%, the inhibition at 0.37 µM ([1]; read-out: Protease % Inhib) was 79.6% and the inhibition at 1.1 µM ([1]; read-out: Protease % Inhib) was 88.6%. The inhibition at 3.3 µM ([1]; read-out: Protease % Inhib) was 87.4%, the inhibition at 10 µM ([1]; read-out: Protease % Inhib) was 83.6% and the inhibition at 30 µM ([1]; read-out: Protease % Inhib) was 78.8%.

Work on `CCCCCC1(CCCCC)CC(O)=C(C(CC)c2cccc(NS(=O)(=O)c3ccc(C#N)cc3)c2)C(=O)O1` (stereo not shown) [Example 64, 4-Cyano-N-[3-[1-(4-Hydroxy-2-oxo-6,6-dipentyl-5,6-dihydro-2H-pyran-3-yl)-propyl]-phenyl]-benzenesulfonamide] yielded an inhibition at 0.123 µM [1, 9] of 27.9%, an inhibition at 0.37 µM [1, 10] of 50.8% and an inhibition at 1.1 µM [1, 11] of 75.6%. The inhibition at 3.3 µM [1, 12] was 80.9%, the inhibition at 10 µM [1, 13] was 82% and the inhibition at 30 µM [1, 14] was 84.4%.

With `N#Cc1ccc(S(=O)(=O)Nc2cccc(C(c3c(O)cc(C(CC4CC4)CC4CC4)oc3=O)C3CC3)c2)cc1` (stereo not shown) [Example 95, 4-Cyano-N-(3-{cyclopropyl-[6-(2-cyclopropyl-1-cyclopropylmethyl-ethyl)-4-hydroxy-2-oxo-2H-pyran-3-yl]-methyl}-phenyl)-benzenesulfonamide] the inhibition at 0.123 µM [1, 9] was 91.2%, the inhibition at 0.37 µM [1, 10] was 102% and the inhibition at 1.1 µM [1, 11] was 106%. The inhibition at 3.3 µM [1, 12] was 113%, the inhibition at 10 µM [1, 13] was 110% and the inhibition at 30 µM [1, 14] was 113%.

Compound `O=c1oc(C(CC2CC2)CC2CC2)cc(O)c1C(c1cccc(NS(=O)(=O)c2cccc3cccnc23)c1)C1CC1` (stereo not shown) [Example 96, N-(3-{Cyclopropyl-[6-(2-cyclopropyl-1-cyclopropylmethyl-ethyl)-4-hydroxy-2-oxo-2H-pyran-3-yl]-methyl}-phenyl)-8-quinolinesulfonamide] has an inhibition at 0.123 µM [1, 9] of 94.2%, an inhibition at 0.37 µM [1, 10] of 119% and an inhibition at 1.1 µM [1, 11] of 122%. It also gave an inhibition at 3.3 µM [1, 12] of 111%, an inhibition at 10 µM [1, 13] of 111% and an inhibition at 30 µM [1, 14] of 109%.

In the case of `COCCOCCCc1cc(O)c(C(c2cccc(NS(=O)(=O)c3cn(C)cn3)c2)C2CC2)c(=O)o1` (stereo not shown) [Example 104, N-(3-{Cyclopropyl-[4-hydroxy-6-(3-{2-methoxy-ethoxy}-propyl)-2-oxo-2H-pyran-3-yl]-methyl}-phenyl)-1-methyl-1H-imidazole-4-sulfonamide], the inhibition at 0.123 µM [1, 9] is reported as under 10%, the inhibition at 0.37 µM [1, 10] is reported as 61.7% and the inhibition at 1.1 µM [1, 11] is reported as 81.8%. For the same compound, the inhibition at 3.3 µM [1, 12] was 93.3%, the inhibition at 10 µM [1, 13] was 96.4% and the inhibition at 30 µM [1, 14] was 109%.

With `CCC(CCOCCOC)c1cc(O)c(C(c2cccc(NS(=O)(=O)c3cn(C)cn3)c2)C2CC2)c(=O)o1` (stereo not shown) [Example 105, N-(3-{Cyclopropyl-[6-(1-ethyl-3-{2-methoxy-ethoxy}-propyl)-4-hydroxy-2-oxo-2H-pyran-3-yl]-methyl}-phenyl)-1-methyl-1H-imidazole-4-sulfonamide] the inhibition at 0.123 µM [1, 9] was 101%, the inhibition at 0.37 µM [1, 10] was 115% and the inhibition at 1.1 µM [1, 11] was 107%. It also gave an inhibition at 3.3 µM [1, 12] of 111%, an inhibition at 10 µM [1, 13] of 111% and an inhibition at 30 µM [1, 14] of 111%.

`CCC(CCN=[N+]=[N-])c1cc(O)c(C(c2cccc(NS(=O)(=O)c3cn(C)cn3)c2)C2CC2)c(=O)o1` (stereo not shown) [Example 109, N-(3-{[6-(3-Azido-1-ethyl-propyl)-4-hydroxy-2-oxo-2H-pyran-3-yl]-cyclopropyl-methyl}-phenyl)-1-methyl-1H-imidazole-4-sulfonamide] gave an inhibition at 0.123 µM [1, 9] of 105%, an inhibition at 0.37 µM [1, 10] of 99.3% and an inhibition at 1.1 µM [1, 11] of 104%. For the same compound, the inhibition at 3.3 µM [1, 12] was 101%, the inhibition at 10 µM [1, 13] was 109% and the inhibition at 30 µM [1, 14] was 109%.

`CCC(CC1CCOCC1)c1cc(O)c(C(c2cccc(NS(=O)(=O)c3cn(C)cn3)c2)C2CC2)c(=O)o1` (stereo not shown) [Example 135, N-(3-{Cyclopropyl-[6-(1-(tetrahydropyran-4-ylmethyl)-propyl)-4-hydroxy-2-oxo-2H-pyran-3-yl]-methyl}-phenyl)-1-methyl-1H-imidazole-4-sulfonamide] showed an inhibition at 0.123 µM [1, 9] of 33.2%, an inhibition at 0.37 µM [1, 10] of 84.5% and an inhibition at 1.1 µM [1, 11] of 99.1%. It also gave an inhibition at 3.3 µM [1, 12] of 96.9%, an inhibition at 10 µM [1, 13] of 101% and an inhibition at 30.9 µM ([1]; read-out: Protease % Inhib) of 102%.

`CN(c1cccc(C(c2c(O)c3c(oc2=O)CCCCCC3)C2CC2)c1)S(=O)(=O)c1ccccc1` (stereo not shown) [Example 194, N-methyl-N-[3-[cyclopropyl(5,6,7,8,9,10-hexahydro-4-hydroxy-2-oxo-2H-cycloocta[b]pyran-3-yl)methyl]phenyl]-benzenesulfonamide] was tested, and the inhibition at 0.123 µM [1, 9] was under 10%, the inhibition at 0.37 µM [1, 10] was 20% and the inhibition at 1.1 µM [1, 11] was 53.9%. The inhibition at 3.3 µM [1, 12] was 75.2%, the inhibition at 10 µM [1, 13] was 85.5% and the inhibition at 30 µM [1, 14] was 85.2%.

`CCCC1(CCc2ccc(F)cc2)CC(O)=C(C(c2cccc(NS(=O)(=O)c3ccc(C#N)cn3)c2)C(C)(C)C)C(=O)O1` (stereo not shown) [Example 253, N-[3-{1-(4-Hydroxy-5,6-dihydro-2-oxo-6-(2-(4-fluorophenyl)ethyl)-6-propyl-2H-pyran-3-yl)-2,2-dimethylpropyl}phenyl]-5-cyanopyridine-2-sulfonamide] was tested, and the inhibition at 0.123 µM [1, 9] was 94%, the inhibition at 0.37 µM [1, 10] was 96.8% and the inhibition at 1.1 µM [1, 11] was 97.6%. For the same compound, the inhibition at 3.3 µM [1, 12] was 95.9%, the inhibition at 10 µM [1, 13] was 97% and the inhibition at 30 µM [1, 14] was 98.5%.

In the case of `CCCC1(CCC)CC(O)=C(C(CC)c2cccc(NS(=O)(=O)c3ccc(C#N)cn3)c2)C(=O)O1` (stereo not shown) [Example 262], the inhibition at 0.123 µM [1, 9] is reported as 91.8%, the inhibition at 0.37 µM [1, 10] is reported as 96.6% and the inhibition at 1.1 µM [1, 11] is reported as 97.1%. For the same compound, the inhibition at 3.3 µM [1, 12] was 95.4%, the inhibition at 10 µM [1, 13] was 94.2% and the inhibition at 30 µM [1, 14] was 89.2%.

`CCCC1(CCc2ccccc2)CC(O)=C(C(CC)c2cccc(NS(=O)(=O)c3ccc(C#N)cn3)c2)C(=O)O1` (stereo not shown) [Example 263, N-[3-{1-(4-Hydroxy-5,6-dihydro-2-oxo-6-phenethyl-6-propyl-2H-pyran-3-yl)propyl}phenyl]-5-cyanopyridine-2-sulfonamide] showed an inhibition at 0.123 µM ([1]; read-out: Protease % Inhib) of 98.1%, an inhibition at 0.37 µM ([1]; read-out: Protease % Inhib) of 99% and an inhibition at 1.1 µM ([1]; read-out: Protease % Inhib) of 99.1%. For the same compound, the inhibition at 3.3 µM ([1]; read-out: Protease % Inhib) was 98.1%, the inhibition at 10 µM ([1]; read-out: Protease % Inhib) was 96.2% and the inhibition at 30 µM ([1]; read-out: Protease % Inhib) was 88.2%.

With `CCCC1(CCc2ccccc2)CC(O)=C(C(c2cccc(NS(=O)(=O)c3ccc(C#N)cn3)c2)C2CC2)C(=O)O1` (stereo not shown) [Example 311] the “PROTEASE % INHIB.” value [1, 3] was 86.51%, the “PROTEASE % INHIB.” value [1, 4] was 91.49% and the “PROTEASE % INHIB.” value [1, 5] was 101.8%. For the same compound, the “PROTEASE % INHIB.” value [1, 6] was 96.5%, the “PROTEASE % INHIB.” value [1, 7] was 93.77% and the “PROTEASE % INHIB.” value [1, 8] was 77.63%.
